Earlier results as cited in patent publication US10414795B2, “Techniques of preparing collagen active peptides” (Technical Institute of Physics and Chemistry, Chinese …, priority 2016, dated 2019).
pIC50: −log10 of the molar value.

System: human breast cancer cell line MCF-7
Details: read-out: IC50, dose-dependent inhibition effect

| Sequence | pIC50 |
| --- | --- |
| LPHVLTPEAGAT [Leu-Pro-His-Val-Leu-Thr-Pro-Glu-Ala-Gly-Ala-Thr, anticancer peptide (1206 Da) from tuna dark muscle byproduct hydrolysate] | 5.09 |
| PTAEGVYMVT [Pro-Thr-Ala-Glu-Gly-Val-Tyr-Met-Val-Thr, anticancer peptide (1124 Da) from tuna dark muscle byproduct hydrolysate] | 5.06 |
